What is called IC50 is the point on the concentration scale where inhibition reaches its midpoint.

From US10493170B1, “Targeted graphene quantum dot-based theranostics” (University of South Florida, priority 2014, dated 2019) come the findings set out here.

Format in all cases: cell-based
Assay [1] deals with ovarian cancer cells ovcar3. The assay can be described thus: Colony formation assay, ovcar3. How it is done:
Colony formation assays were performed with ovarian cancer cells ovcar3 and ovarian surface epithelial cells T80 to examine the impact of DOX, […]-Dox, or GQDs-Dox on the cell growth inhibition.

The subject of assay [2] is normal ovary epithelial cells T80. The assay can be described thus: MTT cell viability assay, T80. The following applies: T80, 24 h, concentration equivalent to Dox, read-out: IC50 (relative cellular viability). How it is done: (§1) Cells were treated with various concentrations of GQDs-FA-Dox (0, 0.25, 0.5, 1, 2, and 4 μM equivalent to Dox) for 24 h and 48 h, respectively. Cell viability was determined by the MTT assay. In brief, the cells were treated with GQDs-FA-Dox conjugates, 10 μL MTT (5 mg/ml) was added into each well and incubated for 4 h, culture medium was removed and 100 μL DMSO was added to dissolve formazan crystals. Absorbance was read at 560 nm for formazan and 670 nm for background by Synergy H4 hybrid multi-mode microplate reader (BioTek).
(§2) To determine the effective dosage of GQDs-FA-Dox on ovarian cancer cells and normal cells, a dose-course MTT assay was done on Ovcar3 cells. The cells were treated with a series of concentration of DOX, GQDs-FA-Dox, and GQDs-Dox for 0.01 to 4 μM (equivalent to Dox concentration) for 24 h.
In general terms: Tetrazolium assays rely on reduction of a dye to a coloured formazan, in cell work by metabolically active cells.

Assay [3] concerns ovarian cells Ovcar3. Put plainly: MTT cell viability assay, Ovcar3. The following applies: Homo sapiens, OVCAR-3; Ovcar3, 24 h, concentration equivalent to Dox; read-out: IC50 (relative cellular viability). How it is done: as §1, §2

On to `Nc1nc2ncc(CNc3ccc(C(=O)N[C@@H](CCC(=O)O)C(=O)O)cc3)nc2c(=O)[nH]1` [Folic acid, folic acid], for which, in assay [1] (ovcar3, colony formation, co-treatment with GQDs-FA-DOX), the “effect of folic acid on ovcar3 cells in response of GQDs-FA-DOX” value was “protective effect”.

Consider `COc1cccc2c1C(=O)c1c(O)c3c(c(O)c1C2=O)C[C@@](O)(C(=O)CO)C[C@@H]3O[C@H]1C[C@H](N)[C@H](O)[C@H](C)O1` [DOX, Doxorubicin], for which the IC50 in assay [2] is 860 nM; in assay [3] it was 930 nM. Further, the colony growth entry in assay [1] (ovcar3) was “strongly inhibited”.
